Experimental data taken from ChEMBL document CHEMBL1201862, “PubChem BioAssay data set” (2004).
Activity calls are given as the source filed them. Rule as the data show it, for most assays here: actives have a measured EC50 and inactives only a lower limit.

What follows are compounds tested on Streptococcus sp. 'group A' (assay: growth inhibition of control SK(-) GAS strain, dose response, counter-screen for streptokinase expression inhibitor project, luminescence, kanamycin, BacTiterGlo, confirmation (AID 1900)).
Type: functional, organism-based
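For AC50 in this document: CYP3A4 tested as one member of a cytochrome P450 panel screen.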

SMILES	EC50
Nc1ccc(C#Cc2ccc3oc4ccccc4c(=O)c3c2)cc1	2.5 µM (active)

What follows are compounds tested against T1, Heat shock factor protein 1 (Mus musculus, UniProt P38532) (assay: inhibition of MG132-induced HSE-luciferase signal, confirmation, cell-based, NIH3T3, luminescence, dose retest (AID 2382);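 also: NIH3T3 fibroblasts with HSF1-driven luciferase reporter stressed by proteasome inhibitor MG132; luminescence from HSF1-driven luciferase expression after 8 hours of MG132 stress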).
T1 sequence (P38532 whole entry): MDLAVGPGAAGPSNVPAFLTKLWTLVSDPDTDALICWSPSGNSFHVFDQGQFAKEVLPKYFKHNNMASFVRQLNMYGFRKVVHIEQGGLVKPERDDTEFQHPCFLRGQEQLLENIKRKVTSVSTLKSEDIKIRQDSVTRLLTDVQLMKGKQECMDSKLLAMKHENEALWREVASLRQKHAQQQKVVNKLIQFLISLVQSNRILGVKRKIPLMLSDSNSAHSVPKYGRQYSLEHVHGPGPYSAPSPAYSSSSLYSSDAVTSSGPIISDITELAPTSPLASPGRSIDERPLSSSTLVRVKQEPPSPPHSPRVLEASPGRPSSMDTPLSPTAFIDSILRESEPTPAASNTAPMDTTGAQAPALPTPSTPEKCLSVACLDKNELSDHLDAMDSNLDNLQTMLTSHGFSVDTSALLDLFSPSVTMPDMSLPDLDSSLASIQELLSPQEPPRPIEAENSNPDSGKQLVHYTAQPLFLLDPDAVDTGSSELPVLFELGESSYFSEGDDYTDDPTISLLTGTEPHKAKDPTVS
Type: functional

SMILES	EC50
Cc1nn(C)c(Cl)c1CN1CCC(n2nccc2NC(=O)C2CCCC2)CC1	> 195 µM (not active)
CCN(CC)S(=O)(=O)c1ccc(C)c(NC(=O)CNCc2ccccc2OC)c1	> 195 µM (not active)
FC(F)Oc1ccc(NC(S)=NNc2ccnc3cc(Cl)ccc23)cc1	> 195 µM (not active)
CCCCn1c(N)c(N(CC(C)C)C(=O)c2cccc(S(=O)(=O)N3CCCCC3)c2)c(=O)[nH]c1=O	> 195 µM (not active)
CCN(C(=O)COC(=O)/C=C/c1ccccc1)C1CCCCC1	> 195 µM (not active)
COCCN(C(S)=Nc1c(C)cccc1C)C(C)c1cccnc1 (configuration not stated)	> 195 µM (not active)
CC(C(=O)NC1CC(C)(C)NC(C)(C)C1)c1ccc([N+](=O)[O-])cc1 (configuration not stated)	> 195 µM (not active)
O=C(Nc1cccc(S(=O)(=O)N2CCOCC2)c1)c1ccccn1	> 195 µM (not active)
Cn1c(=O)n(C)c2cc(NS(C)(=O)=O)ccc21	> 195 µM (not active)
CN(CC(=O)Nc1cccc(F)c1)CC(=O)Nc1cccc(S(N)(=O)=O)c1	> 195 µM (not active)
COc1ccccc1CN1CC(C(=O)NCCN2CCNC2=O)CCC1=O (configuration not stated)	9.48 µM (active)
COc1ccc(CC(NC(C)=O)C(=O)NC2CCN(C(=O)c3ccc(OC)c(OC)c3)CC2)cc1OC (configuration not stated)	> 195 µM (not active)
CN1C(=O)c2ccccc2Sc2ccc(C(=O)N3CCC4(CC3)OCCO4)cc21	> 195 µM (not active)
COc1cccc(/C=C(\C#N)c2nc3ccccc3[nH]2)c1OCC(=O)O	> 195 µM (not active)

These compounds were tested on Streptococcus (assay: Group A Streptococcus viability loss, dose response, counter-screen for streptokinase expression inhibitor project, luminescence, BacTiterGlo (AID 1915);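 also: potency for reduction of bacterial viability or growth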).
Type: functional, organism-based

SMILES	EC50
Nc1ccc(C#Cc2ccc3oc4ccccc4c(=O)c3c2)cc1	2.37 µM (active)

Each compound was assayed against Cytochrome P450 3A4 (Homo sapiens, UniProt P08684).
Cytochrome P450 3A4, sequence (P08684 whole entry): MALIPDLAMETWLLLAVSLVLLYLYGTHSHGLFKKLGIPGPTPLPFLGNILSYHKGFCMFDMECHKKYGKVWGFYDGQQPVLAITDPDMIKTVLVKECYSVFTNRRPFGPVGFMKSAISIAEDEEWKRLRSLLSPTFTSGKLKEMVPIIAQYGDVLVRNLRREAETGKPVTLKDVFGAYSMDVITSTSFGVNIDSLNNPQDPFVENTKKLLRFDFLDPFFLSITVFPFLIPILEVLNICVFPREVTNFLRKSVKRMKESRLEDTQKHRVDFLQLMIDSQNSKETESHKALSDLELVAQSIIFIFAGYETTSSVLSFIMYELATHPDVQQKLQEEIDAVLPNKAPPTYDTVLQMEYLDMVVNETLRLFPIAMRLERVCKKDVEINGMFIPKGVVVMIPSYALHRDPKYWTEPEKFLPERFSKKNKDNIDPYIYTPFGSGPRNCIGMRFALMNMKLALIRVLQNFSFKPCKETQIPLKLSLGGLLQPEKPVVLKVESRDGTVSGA

SMILES	AC50
CN1C(=O)c2ccccc2Sc2ccc(C(=O)N3CCC4(CC3)OCCO4)cc21	20 µM (inconclusive)
